How the values were obtained:
[1] = biological target: T1, αvβ5 integrin receptor (Homo sapiens, UniProt P06756+P18084); experiment: Solid-phase receptor-binding assay, competition with [125I]-echistatin, αvβ5; details: IC50±SD, average of three or more independent determinations, 0.1 nM [125I]echistatin
T1 construct: purchased Chemicon International Inc., Temecula, Calif
Experimental: (§1) Integrin-coated 96-well plates were incubated with the ligand in the presence of serially diluted competing compounds.
(§2) Solid-Phase Receptor-Binding Assay (General Procedure). The receptor binding assays were performed as described previously (Kumar, C. C.; et al. J. Pharmacol. Exp. Ther. 1997, 283, 843). Purified αvβ3 and αvβ5 receptors (Chemicon International Inc., Temecula, Calif.) were diluted to 500 ng/mL and 1000 ng/mL, respectively, in coating buffer [20 mM Tris-HCl (pH 7.4), 150 mM NaCl, 2 mM CaCl2, 1 mM MgCl2 and 1 mM MnCl2]. An aliquot of diluted receptors (100 μL/well) was added to 96-well microtiter plates and incubated overnight at 4° C. Coating solution was removed and 200 μL of blocking solution (coating buffer plus 1% BSA) were added to the wells and incubated for additional 2 h at room temperature. After incubation, the plates were rinsed three times with 200 μL of blocking-binding solution and incubated for 3 h at room temperature with 0.05 nM and 0.1 nM [^125I]Echistatin (Amersham Pharmacia) for αvβ3 and αvβ5 receptor binding assays, respectively. After incubation, the plates were sealed and counted in the γ-counter (Packard).

[2] = biological target: T2, αvβ3 integrin receptor (Homo sapiens, UniProt P05106+P06756); experiment: Solid-phase receptor-binding assay, competition with [125I]-echistatin, αvβ3; details: IC50 in the receptor high-affinity state; IC50±SD, average of three or more independent determinations; 0.05 nM [125I]echistatin
T2 construct: purchased Chemicon International Inc., Temecula, Calif
Experimental: as §1, §2

[3] = no high-affinity-state footnote

IC50 ([1]; IC50 in the receptor high-affinity state) [nM]	Structure (SMILES)	IC50 [1, 3] [nM]	IC50 [2] [nM]
–	N=C(N)NCCC[C@@H]1NC(=O)[C@@H]2C[C@@H](CN2C(=O)c2ccccc2)NC(=O)[C@H](CC(=O)O)NC(=O)CNC1=O [(If), c[-Arg-Gly-Asp-AMPRO2-]]	86.6 ± 5.7	0.16 ± 0.03
–	CCC(=O)N1C[C@@H]2C[C@H]1C(=O)N[C@@H](CCCNC(=N)N)C(=O)NCC(=O)N[C@@H](CC(=O)O)C(=O)N2 [(Ih), c[Arg-Gly-Asp-AMPRO4-]]	94 ± 13	0.03 ± 0.01
0.88 ± 0.23	CCCCCCCN1C[C@@H]2C[C@H]1C(=O)N[C@@H](CCCNC(=N)N)C(=O)NCC(=O)N[C@@H](CC(=O)O)C(=O)N2 [(Ip), c[-Arg-Gly-Asp-AMPRO15-]]	–	0.08 ± 0.02
–	N=C(N)NCCC[C@@H]1NC(=O)[C@@H]2C[C@H](CN2C(=O)c2ccccc2)NC(=O)[C@H](CC(=O)O)NC(=O)CNC1=O [(Ii), c[-Arg-Gly-Asp-AMPRO5-]]	89.2 ± 5.4	0.91 ± 0.4
